Key:
[1] = tested on: 786-0; assay: NCI 60-cell line one-dose antiproliferative screen (SRB); assay type: cell-based; details: Homo sapiens, read-out: growth inhibition % (GI%)
How it was run: (§1)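 Tumour cells pre-incubated 24 h, then dosed once at 10 µM (from DMSO stock diluted in medium with gentamicin). After 48 h, TCA fixation and SRB staining; absorbance 515 nm converted to growth inhibition percentage.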

[2] = tested on: A498; assay: as above; assay type: cell-based; details: Homo sapiens, read-out: growth inhibition % (GI%)
How it was run: as §1

[3] = tested on: A549/ATCC; assay: as above; assay type: cell-based; details: Homo sapiens, read-out: growth inhibition % (GI%)
How it was run: as §1

[4] = tested on: ACHN; assay: as above; assay type: cell-based; details: Homo sapiens, read-out: growth inhibition % (GI%)
How it was run: as §1

[5] = tested on: BT-5; assay: as above; assay type: cell-based; details: Homo sapiens, read-out: growth inhibition % (GI%)
How it was run: as §1

[6] = tested on: CAKI-1; assay: as above; assay type: cell-based; details: Homo sapiens, read-out: growth inhibition % (GI%)
How it was run: as §1

[7] = tested on: EKVX; assay: as above; assay type: cell-based; details: Homo sapiens, read-out: growth inhibition % (GI%)
How it was run: as §1

[8] = tested on: HCT-116; assay: as above; assay type: cell-based; details: Homo sapiens, read-out: growth inhibition % (GI%)
How it was run: as §1

[9] = tested on: HCT-15; assay: as above; assay type: cell-based; details: Homo sapiens, read-out: growth inhibition % (GI%)
How it was run: as §1

[10] = tested on: HL-60 (TB); assay: as above; assay type: cell-based; details: Homo sapiens, read-out: growth inhibition % (GI%)
How it was run: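 Compounds tested at a single 10 µM dose for 48 h at 37 °C after 24 h pre-incubation; cells TCA-fixed and stained with sulforhodamine B, absorbance at 515 nm. Percent growth calculated relative to no-compound control and time-zero cell count, reported as growth inhibition percentage.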

[11] = tested on: HOP-62; assay: as above; assay type: cell-based; details: Homo sapiens, read-out: growth inhibition % (GI%)
How it was run: as §1

[12] = tested on: HS 578 T; assay: as above; assay type: cell-based; details: Homo sapiens, read-out: growth inhibition % (GI%)
How it was run: as §1

[13] = tested on: IGROV1; assay: as above; assay type: cell-based; details: Homo sapiens, IGROV-1, read-out: growth inhibition % (GI%)
How it was run: as §1

[14] = tested on: K-562; assay: as above; assay type: cell-based; details: Homo sapiens, K562, read-out: growth inhibition % (GI%)
How it was run: as §1

[15] = tested on: LOX IMVI; assay: as above; assay type: cell-based; details: Homo sapiens, read-out: growth inhibition % (GI%)
How it was run: as §1

[16] = tested on: M14; assay: as above; assay type: cell-based; details: Homo sapiens, read-out: growth inhibition % (GI%)
How it was run: as §1

[17] = tested on: MCF7; assay: as above; assay type: cell-based; details: Homo sapiens, read-out: growth inhibition % (GI%)
How it was run: as §1

[18] = tested on: MDA-MB-231/ATCC; assay: as above; assay type: cell-based; details: Homo sapiens, read-out: growth inhibition % (GI%)
How it was run: as §1

[19] = tested on: MDA-MB-435; assay: as above; assay type: cell-based; details: Homo sapiens, read-out: growth inhibition % (GI%)
How it was run: as §1

[20] = tested on: MDA-MB-468; assay: as above; assay type: cell-based; details: Homo sapiens, read-out: growth inhibition % (GI%)
How it was run: as §1

[21] = tested on: NCI-H226; assay: as above; assay type: cell-based; details: Homo sapiens, read-out: growth inhibition % (GI%)
How it was run: as §1

[22] = tested on: NCI-H23; assay: as above; assay type: cell-based; details: Homo sapiens, read-out: growth inhibition % (GI%)
How it was run: as §1

[23] = tested on: NCI-H522; assay: as above; assay type: cell-based; details: Homo sapiens, read-out: growth inhibition % (GI%)
How it was run: as §1

[24] = tested on: OVCAR-4; assay: as above; assay type: cell-based; details: Homo sapiens, read-out: growth inhibition % (GI%)
How it was run: as §1

[25] = tested on: OVCAR-5; assay: as above; assay type: cell-based; details: Homo sapiens, read-out: growth inhibition % (GI%)
How it was run: as §1

[26] = tested on: OVCAR-8; assay: as above; assay type: cell-based; details: Homo sapiens, read-out: growth inhibition % (GI%)
How it was run: as §1

[27] = tested on: SF-268; assay: as above; assay type: cell-based; details: Homo sapiens, read-out: growth inhibition % (GI%)
How it was run: as §1

[28] = tested on: SF-295; assay: as above; assay type: cell-based; details: Homo sapiens, read-out: growth inhibition % (GI%)
How it was run: as §1

[29] = tested on: SF-539; assay: as above; assay type: cell-based; details: Homo sapiens, read-out: growth inhibition % (GI%)
How it was run: as §1

[30] = tested on: SK-MEL-5; assay: as above; assay type: cell-based; details: Homo sapiens, read-out: growth inhibition % (GI%)
How it was run: as §1

[31] = tested on: SN 12 C; assay: as above; assay type: cell-based; details: Homo sapiens, SN12C, read-out: growth inhibition % (GI%)
How it was run: as §1

[32] = tested on: SNB-19; assay: as above; assay type: cell-based; details: Homo sapiens, read-out: growth inhibition % (GI%)
How it was run: as §1

[33] = tested on: SNB-75; assay: as above; assay type: cell-based; details: Homo sapiens, read-out: growth inhibition % (GI%)
How it was run: as §1

[34] = tested on: SR; assay: as above; assay type: cell-based; details: Homo sapiens, read-out: growth inhibition % (GI%)
How it was run: as §1

[35] = tested on: SW-620; assay: as above; assay type: cell-based; details: Homo sapiens, read-out: growth inhibition % (GI%)
How it was run: as §1

[36] = tested on: T-47D; assay: as above; assay type: cell-based; details: Homo sapiens, T47D, read-out: growth inhibition % (GI%)
How it was run: as §1

[37] = tested on: TK-10; assay: as above; assay type: cell-based; details: Homo sapiens, read-out: growth inhibition % (GI%)
How it was run: as §1

[38] = tested on: U251; assay: as above; assay type: cell-based; details: Homo sapiens, U-251, read-out: growth inhibition % (GI%)
How it was run: as §1

[39] = tested on: UACC-257; assay: as above; assay type: cell-based; details: Homo sapiens, read-out: growth inhibition % (GI%)
How it was run: as §1

[40] = tested on: UACC-62; assay: as above; assay type: cell-based; details: Homo sapiens, read-out: growth inhibition % (GI%)
How it was run: as §1

[41] = tested on: UO-31; assay: as above; assay type: cell-based; details: Homo sapiens, read-out: growth inhibition % (GI%)
How it was run: as §1

[42] = tested on: panel of 60 tumour cell lines; assay: NCI 60-cell line one-dose screen, summary over the panel; assay type: cell-based, human; details: 10 µM
Protocol: Anticancer activity screening of the newly synthesised compounds was measured in vitro utilising 60 different human tumour cell lines provided by US National Cancer Institute according to previously reported standard procedure[41–43] as follows: Cells are inoculated into 96-well microtiter plates in 100 ml. After cell inoculation, the microtiter plates are incubated at 37 °C, 5% CO2, 95% air, and 100% relative humidity for 24 h prior to addition of experimental compounds. After 24 h, two plates of each cell line are fixed in situ with TCA, to represent a measurement of the cell population for each cell line at the time of compound addition (Tz). Experimental compounds are solubilised in dimethyl sulfoxide at 400-fold the desired final maximum test concentration and stored frozen prior to use. At the time of compound addition, an aliquot of frozen concentrate is thawed and diluted to twice the desired final maximum test concentration with a complete medium containing […] gentamicin. Aliquots of […] of the compounds dilutions are added to the appropriate microtiter wells already containing 100 ml of medium, resulting in the required final compound concentration. Following compound addition, the plates are incubated for an additional 48 h at 37 °C, 5% CO2, 95% air, and 100% relative humidity. […] The bound stain is subsequently solubilised with a 10 mM trizma base, and the absorbance is read on an automated plate reader at a wavelength of 515 nm. […] Using the absorbance measurements [time zero, (Tz), control growth, (C), and test growth in the presence of compound (Ti)], the percentage growth is calculated for each compound. […]
Fifteen newly synthesised compounds were tested for their in vitro antiproliferative activity by the National Cancer Institute (NCI), Maryland, USA[50], under the Developmental Therapeutic Program (DTP)[41]^,[43]^,[51]^,[52]. The tested compounds were evaluated at a concentration of 10 µM on a panel of 60 tumour cell lines representing leukaemia and non-small cell lung, colon, CNS, melanoma, ovarian, renal, prostate, and breast cancers. […]

Compound: Cc1ccc(C(=O)c2ccc(CC(=O)NN=Cc3ccc4c(c3)OCO4)n2C)cc1 [Compound 5d, N′-(Benzo[d][1,3]dioxol-5-ylmethylene)-2–(1-methyl-5–(4-methylbenzoyl)-1H-pyrrol-2-yl)acetohydrazide]
- inhibition at 10 µM [1]: < 10%
- inhibition at 10 µM [2]: 13.1%
- inhibition at 10 µM [3]: < 10%
- inhibition at 10 µM [4]: < 10%
- inhibition at 10 µM [5]: < 10%
- inhibition at 10 µM [6]: < 10%
- inhibition at 10 µM [7]: < 10%
- inhibition at 10 µM [8]: < 10%
- inhibition at 10 µM [9]: < 10%
- inhibition at 10 µM [10]: < 10%
- inhibition at 10 µM [11]: < 10%
- inhibition at 10 µM [12]: < 10%
- inhibition at 10 µM [13]: < 10%
- inhibition at 10 µM [14]: < 10%
- inhibition at 10 µM [15]: < 10%
- inhibition at 10 µM [16]: < 10%
- inhibition at 10 µM [17]: < 10%
- inhibition at 10 µM [18]: < 10%
- inhibition at 10 µM [19]: < 10%
- inhibition at 10 µM [20]: < 10%
- inhibition at 10 µM [21]: < 10%
- inhibition at 10 µM [22]: < 10%
- inhibition at 10 µM [23]: 12.4%
- inhibition at 10 µM [24]: < 10%
- inhibition at 10 µM [25]: < 10%
- inhibition at 10 µM [26]: < 10%
- inhibition at 10 µM [27]: < 10%
- inhibition at 10 µM [28]: < 10%
- inhibition at 10 µM [29]: < 10%
- inhibition at 10 µM [30]: < 10%
- inhibition at 10 µM [31]: < 10%
- inhibition at 10 µM [32]: < 10%
- inhibition at 10 µM [33]: < 10%
- inhibition at 10 µM [34]: < 10%
- inhibition at 10 µM [35]: < 10%
- inhibition at 10 µM [36]: 15.6%
- inhibition at 10 µM [37]: < 10%
- inhibition at 10 µM [38]: < 10%
- inhibition at 10 µM [39]: < 10%
- inhibition at 10 µM [40]: < 10%
- inhibition at 10 µM [41]: 22.2%
- antiproliferative activity over the panel (in words) [42]: inactive against most investigated cell lines

From PMC8079033, “Design, synthesis, anticancer evaluation, and molecular modelling studies of novel tolmetin derivatives as potential VEGFR-2 inhibitors and apoptosis inducers” (Journal of Enzyme Inhibition and Medicinal Chemistry, 2021)
